We go through 58 compounds from patent publication US8242118B2, “Arylsulfonamide derivatives for use as CCR3 antagonists in the treatment of inflammatory and immunological disorders” (Axikin Pharmaceuticals Inc., priority 2001, dated 2012).

The target in the experiment is T1, Human CCR3 (Homo sapiens, UniProt P51677).
T1 construct: The cloned CCR3 cDNA was constructed with pcDNA3 vector and transfected into a IC562 cell line; expressed in transfected cells
T1 sequence (P51677 1-355): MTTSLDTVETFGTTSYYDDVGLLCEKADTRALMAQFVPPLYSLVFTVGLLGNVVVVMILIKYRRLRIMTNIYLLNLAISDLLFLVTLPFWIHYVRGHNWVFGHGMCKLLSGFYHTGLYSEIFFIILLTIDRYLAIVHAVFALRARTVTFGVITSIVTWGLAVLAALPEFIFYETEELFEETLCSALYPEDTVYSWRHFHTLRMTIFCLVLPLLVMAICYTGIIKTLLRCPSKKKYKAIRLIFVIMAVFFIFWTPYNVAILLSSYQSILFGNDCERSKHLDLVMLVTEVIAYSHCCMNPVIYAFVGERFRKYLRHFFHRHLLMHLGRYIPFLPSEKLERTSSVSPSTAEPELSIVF
Description: Receptor binding assay (RBA), [125I]-eotaxin. The conditions noted are these: human CCR3-transformed K562 cells, 0.1 nM [125I]-eotaxin; compounds of about 40 to 90% purity; read-out: Activity grade RBA (IC50 class). The procedure, abridged:
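Butyrate-pretreated (5 mM, 20-24 h) CCR3-transfected K562 cells incubated 1 h at room temperature with compound and 0.1 nM final [125I]-eotaxin in HEPES pH 7.6 buffer; bound radioactivity counted after filtration. Non-specific binding with 500 nM unlabeled eotaxin; IC50 from inhibition curve.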

For `O=[N+]([O-])c1ccc(Oc2cc(Cl)cc(Cl)c2)c(S(=O)(=O)N2CCN(CC3CCCO3)CC2)c1` (stereo not shown) [Example 4-27], the IC50 – broadly, the point on the concentration scale where inhibition reaches its midpoint – is under 1 µM. The result for `Cc1cc(C)cc(Oc2ccc(NC(=O)CC(C)C)cc2S(=O)(=O)N2CCNCC2)c1` [Example 7-4] reads over 10 µM; that for `Cc1ccc(C(=O)Nc2ccc(Oc3cc(C)cc(C)c3)c(S(=O)(=O)N3CCNCC3)c2)cc1` [Example 7-6], over 10 µM; that for `Cc1cc(C)cc(Oc2ccc([N+](=O)[O-])cc2S(=O)(=O)N2CCN(CCC(F)(F)F)CC2)c1` [Example 4-33], under 1 µM. The result for `CCCC(C)N1CCN(S(=O)(=O)c2cc([N+](=O)[O-])ccc2Oc2cc(C)cc(C)c2)CC1` (stereo not shown) [Example 4-17] reads under 1 µM; that for `Cc1cc(C)cc(Oc2ccc([N+](=O)[O-])cc2S(=O)(=O)N2CCC(N(C)C)CC2)c1.Cl` [Example 4-24], under 1 µM; that for `O=[N+]([O-])c1ccc(Nc2ccccc2Cl)c(S(=O)(=O)N2CCNCC2)c1` [Example 3-6], over 10 µM. The result for `COCCCN1CCN(S(=O)(=O)c2cc([N+](=O)[O-])ccc2Oc2cc(Cl)cc(Cl)c2)CC1` [Example 4-36] reads under 1 µM; that for `Cl.N[C@@H]1CCN(S(=O)(=O)c2cc([N+](=O)[O-])ccc2Sc2cc(Cl)cc(Cl)c2)C1` [Example 2-11], under 1 µM; that for `O=[N+]([O-])c1ccc(Oc2cc(Cl)cc(Cl)c2)c(S(=O)(=O)N2CCN(CCC(F)(F)F)CC2)c1` [Example 4-34], under 1 µM. `CN(C)CCN(C)S(=O)(=O)c1cc([N+](=O)[O-])ccc1Oc1cc(Cl)cc(Cl)c1` [Example 4-20]: the IC50 was under 1 µM. The result for `CCC(C)N1CCN(S(=O)(=O)c2cc([N+](=O)[O-])ccc2Oc2cc(C)cc(C)c2)CC1` (stereo not shown) [Example 4-16] reads under 1 µM. As for `CCC(CC)N1CCN(S(=O)(=O)c2cc([N+](=O)[O-])ccc2Oc2cc(C)cc(C)c2)CC1` [Example 4-18], the IC50 is under 1 µM. The result for `Cc1cc(C)cc(Oc2ccc([N+](=O)[O-])cc2S(=O)(=O)N2CCN(C)CC2)c1` [Example 4-4] reads under 1 µM. As for `N#Cc1ccc(Oc2cc(Cl)cc(Cl)c2)c(S(=O)(=O)N2C[C@H]3C[C@@H]2CN3)c1` [Example 13-4], the IC50 was under 1 µM. The result for `Cc1cc(C)cc(Oc2ccc([N+](=O)[O-])cc2S(=O)(=O)N2CCN(C3CCCC3)CC2)c1` [Example 4-19] reads under 1 µM; that for `CCN(CC)C1CCN(S(=O)(=O)c2cc([N+](=O)[O-])ccc2Oc2cc(Cl)cc(Cl)c2)C1` (stereo not shown) [Example 4-21], under 1 µM; that for `O=[N+]([O-])c1ccc(Sc2cc(Cl)cc(Cl)c2)c(S(=O)(=O)N2CCC(N3CCCCC3)CC2)c1` [Example 2-3], under 1 µM.

Take `CC(=O)Nc1ccc(Oc2cc(C)cc(C)c2)c(S(=O)(=O)N2CCNCC2)c1` [Example 7-2]: the IC50 is over 10 µM.

In the case of `O=[N+]([O-])c1ccc(Sc2cc(Cl)cc(Cl)c2)c(S(=O)(=O)NCCN2CCCCC2)c1` [Example 2-24], the IC50 was under 1 µM.

With `O=[N+]([O-])c1ccc(Oc2cc(Cl)cc(Cl)c2)c(S(=O)(=O)N2CCC(N3CCCCC3)CC2)c1` [Example 4-29], the IC50 is under 1 µM. The result for `Cc1cc(C)cc(Oc2ccc(NC(=O)CCc3ccccc3)cc2S(=O)(=O)N2CCNCC2)c1` [Example 7-8] reads over 10 µM; that for `O=[N+]([O-])c1ccc(Nc2cc(Cl)cc(Cl)c2)c(S(=O)(=O)N2CCNCC2)c1` [Example 3-2], under 1 µM. As for `N#Cc1ccc(Oc2cc(Cl)cc(Cl)c2)c(S(=O)(=O)N2CCCC3CN(Cc4ccccc4)CC32)c1` (stereo not shown) [Example 13-2], the IC50 was 1 to 10 µM. On to `O=[N+]([O-])c1ccc(Oc2cc(Cl)cc(Cl)c2)c(S(=O)(=O)N2CCC(N3CCCC3)C2)c1` (stereo not shown) [Example 4-38], for which the IC50 was under 1 µM. Turning to `Cc1cc(C)cc(Oc2ccc(S(=O)(=O)N(C)C)cc2S(=O)(=O)N2CCNCC2)c1.Cl` [Example 10-2], the IC50 lay in the range of 1 to 10 µM. The result for `Cc1cc(C)cc(Oc2ccc([N+](=O)[O-])cc2S(=O)(=O)N2CC[C@@H](N(C)C)C2)c1` [Example 4-13] reads under 1 µM. As for `Cc1cc(C)cc(Oc2ccc([N+](=O)[O-])cc2S(=O)(=O)NCCN2CCCCC2)c1` [Example 4-2], the IC50 is under 1 µM. The result for `Cc1cc(C)cc(Oc2ccc([N+](=O)[O-])cc2S(=O)(=O)N(C)CCN(C)C)c1` [Example 4-14] reads under 1 µM; that for `CCN1CCC(N(CC)S(=O)(=O)c2cc([N+](=O)[O-])ccc2Oc2cc(C)cc(C)c2)C1` (stereo not shown) [Example 4-12], under 1 µM; that for `Cc1ccccc1Nc1ccc([N+](=O)[O-])cc1S(=O)(=O)N1CCNCC1` [Example 3-3], 1 to 10 µM. Consider `Cc1cc(C)cc(Oc2ccc(NC(=O)C(C)(C)C)cc2S(=O)(=O)N2CCNCC2)c1` [Example 7-3], for which the IC50 was over 10 µM. The result for `Cc1cc(C)cc(Oc2ccc([N+](=O)[O-])cc2S(=O)(=O)N2CCN(c3ccccc3)CC2)c1` [Example 4-7] reads over 10 µM. The result for `Cc1cc(C)cc(Oc2ccc(I)cc2S(=O)(=O)N2CCNCC2)c1.Cl` [Example 5-6] reads under 1 µM; that for `N[C@H]1CCN(S(=O)(=O)c2cc([N+](=O)[O-])ccc2Sc2cc(Cl)cc(Cl)c2)C1` [Example 2-12], under 1 µM; that for `Cc1cc(C)cc(Oc2ccc(NC(=O)c3cccc4ccccc34)cc2S(=O)(=O)N2CCNCC2)c1` [Example 7-7], over 10 µM. The result for `Cc1cc(C)cc(Oc2ccc([N+](=O)[O-])cc2S(=O)(=O)N2CCN(C3CCCCC3)CC2)c1` [Example 4-6] reads under 1 µM; that for `Cc1cc(C)cc(Oc2ccc(NC(=O)c3ccccc3)cc2S(=O)(=O)N2CCNCC2)c1` [Example 7-5], over 10 µM; that for `Cc1ccc(Nc2ccc([N+](=O)[O-])cc2S(=O)(=O)N2CCNCC2)cc1` [Example 3-5], over 10 µM. Turning to `Cc1cc(C)cc(Oc2ccc(N)cc2S(=O)(=O)N2CCNCC2)c1.O=C(O)C(F)(F)F` [Example 5-3], the IC50 was over 10 µM. The result for `Cc1cc(C)cc(Oc2cc(C)c(N)cc2S(=O)(=O)N2CCNCC2)c1.Cl.Cl` [Example 5-7] reads over 10 µM; that for `CCN1CCN(S(=O)(=O)c2cc(Cl)ccc2Oc2cc(C)cc(C)c2)CC1` [Example 5-4], under 1 µM. Consider `Cc1cc(C)cc(Oc2ccc([N+](=O)[O-])cc2S(=O)(=O)N2CCN(C(C)C)CC2)c1` [Example 4-15], for which the IC50 is under 1 µM. The result for `Cc1cc(C)cc(Oc2ccc([N+](=O)[O-])cc2S(=O)(=O)NCCN2CCOCC2)c1` [Example 4-3] reads 1 to 10 µM; that for `CCN1CCN(S(=O)(=O)c2cc(I)ccc2Oc2cc(C)cc(C)c2)CC1` [Example 5-5], under 1 µM; that for `N#Cc1ccc(Oc2cc(Cl)cc(Cl)c2)c(S(=O)(=O)N2C[C@@H]3CCCN[C@@H]3C2)c1` [Example 13-5], 1 to 10 µM.

`CN1CCC(N(C)S(=O)(=O)c2cc([N+](=O)[O-])ccc2Oc2cc(Cl)cc(Cl)c2)C1` (stereo not shown) [Example 4-23]: the IC50 was under 1 µM.

Consider `COCCCN1CCN(S(=O)(=O)c2cc(C#N)ccc2Oc2cc(Cl)cc(Cl)c2)CC1` [Example 13-7], for which the IC50 was under 1 µM.

Take `Cc1ccc(N2CCN(S(=O)(=O)c3cc([N+](=O)[O-])ccc3Oc3cc(C)cc(C)c3)CC2)cc1` [Example 4-8]: the concentration for half-maximal inhibition (IC50) is over 10 µM. The result for `Cc1cc(C)cc(Oc2ccc(NC(=O)c3cccs3)cc2S(=O)(=O)N2CCNCC2)c1` [Example 7-9] reads over 10 µM; that for `O=[N+]([O-])c1ccc(Oc2cc(Cl)cc(Cl)c2)c(S(=O)(=O)N2CCC[C@H]2CN2CCCC2)c1` [Example 4-22], under 1 µM; that for `CN(C)CCN(C)S(=O)(=O)c1cc([N+](=O)[O-])ccc1Sc1cc(Cl)cc(Cl)c1` [Example 2-23], under 1 µM. With `O=[N+]([O-])c1ccc(Sc2cc(Cl)cc(Cl)c2)c(S(=O)(=O)N2CCC(N3CCCC3)CC2)c1` [Example 2-22], the IC50 was under 1 µM. As for `Cc1cccc(Nc2ccc([N+](=O)[O-])cc2S(=O)(=O)N2CCNCC2)c1` [Example 3-4], the IC50 was 1 to 10 µM.

With `CC1CCCCN1CCCNS(=O)(=O)c1cc([N+](=O)[O-])ccc1Sc1cc(Cl)cc(Cl)c1` (stereo not shown) [Example 2-13], the IC50 was under 1 µM.

On to `CCN1CCN(S(=O)(=O)c2cc([N+](=O)[O-])ccc2Oc2cc(C)cc(C)c2)CC1` [Example 4-5], for which the IC50 is under 1 µM.

With `Cc1cc(C)cc(Oc2ccc([N+](=O)[O-])cc2S(=O)(=O)N2CCN(CC3CCCO3)CC2)c1` (stereo not shown) [Example 4-26], the IC50 was under 1 µM. The result for `Cc1cc(C)cc(Oc2ccc(F)cc2S(=O)(=O)N2CCNCC2)c1` [Example 6-3] reads under 1 µM.
